# Assay results as given in patent US9867827B1, “Methods and formulations for topical treatment of psoriasis” (Florida A&M University, priority 2015, dated 2018).
# “Also recorded” adds a separate entry of the source.
# Assays:
# TNFα = assay: Western blot analysis of skin samples, TNFα; type: in vivo, C57BL/6 mice; details: compared to the TOPGRAF group, p<0.05
# Method: The animals were then treated by applying cetylpyridinum chloride (CPC)-urea gel containing blank formulation as negative control, pemetrexed formulation, siTNFα formulation, pemetrexed-siTNFα combination formulation, or a known tacrolimus cream (TOPGRAF) as a positive control.
# For western blot analysis, skin samples were minced in lysis cocktail composed of RIPA lysis buffer, protease inhibitor (PI) and phenylmethylsulfonyl fluoride (PMSF). BCA Protein Assay Reagent Kit was used to estimate the protein concentration per the manufacturer's protocol. 50 μg of the extracted protein for each sample was loaded into a gel and subjected to SDS-polyacrylamide electrophoresis (SDS-PAGE). The blots were incubated with primary antibodies for TNFα, NFkB, IL23, IL17, and β-actin and subsequently detected with Horseradish peroxidase-conjugated secondary antibodies using a S[…] PICO Chemiluminescent Substrate (Pierce, Rockford, Ill., USA) and BIORAD CHEMIDOC XRS+ imaging system (Hercules, Calif., USA).
# NFkB = assay: Western blot analysis of skin samples, NFkB; type: in vivo, C57BL/6 mice; details: compared to the TOPGRAF group, p<0.05
# Method: (§1) At the end of the study, skin samples were harvested and analyzed for inflammatory proteins by immunohistochemistry and western blot analyses.
# (§2) For western blot analysis, skin samples were minced in lysis cocktail composed of RIPA lysis buffer, protease inhibitor (PI) and phenylmethylsulfonyl fluoride (PMSF). BCA Protein Assay Reagent Kit was used to estimate the protein concentration per the manufacturer's protocol. 50 μg of the extracted protein for each sample was loaded into a gel and subjected to SDS-polyacrylamide electrophoresis (SDS-PAGE). The blots were incubated with primary antibodies for TNFα, NFkB, IL23, IL17, and β-actin and subsequently detected with Horseradish peroxidase-conjugated secondary antibodies using a SUPERSIGNAL WEST PICO Chemiluminescent Substrate (Pierce, Rockford, Ill., USA) and BIORAD CHEMIDOC XRS+ imaging system (Hercules, Calif., USA).
# IL23 = assay: Western blot analysis of skin samples, IL23; type: in vivo, C57BL/6 mice; details: compared to the TOPGRAF group, p<0.05
# Method: as §1, §2
# IL17 = assay: Western blot analysis of skin samples, IL17; type: in vivo, C57BL/6 mice; details: compared to the TOPGRAF group, p<0.05
# Method: as §1, §2
# [1] = test system: IMQ-induced psoriatic-like plaques; details: after five treatments
# Method: (§3) Briefly, IMQ cream was applied topically to the shaven dorsal regions of C57BL/6 mice (4 mg/day/animal) to form psoriatic-like plaques. […] The CPC-urea gels containing the foregoing formulations were applied to the inflamed dorsal regions of the animals for five (5) consecutive days.
# A clinical scoring method for the PASI was used daily to score the severity of the inflammation induced on the dorsal regions of the mice, based on the extent of erythema, scaling, and epidermal thickening. The PASI score was assigned daily after initiating treatment on a scale of 0 to 4, where 0 indicated no inflammation, 1 indicated slight inflammation, 2 indicated moderate inflammation, 3 indicated marked inflammation, and 4 indicated very severe inflammation.
# [2] = test system: IMQ-induced psoriatic-like plaques; details: after five treatments, topical
# Method: as §3
# The TEWL was estimated using DELFIN VAPOMETER (DELFIN Technologies Ltd, Finland) as a measure of the extent of skin damage and healing with each day of treatment. The device was placed gently on the dorsal region of the mice each day of treatment and the value corresponding to water loss was recorded.
compound,measurement,setting,value
Nc1nc2[nH]cc(CCc3ccc(C(=O)N[C@@H](CCC(=O)O)C(=O)O)cc3)c2c(=O)[nH]1 [pemetrexed],expression of TNFα (western blot),TNFα,significant reduction
same,expression of NFKB (western blot),NFkB,significant reduction
same,expression of IL23 (western blot),IL23,significant reduction; also recorded: decreased expressions
same,expression of IL17 (western blot),IL17,significant reduction; also recorded: decreased expressions
same,PASI score compared to tacrolimus cream (TOPGRAF),[1]; topical,better PASI score; also recorded: superior
same,erythema and scaling compared to other groups,[1]; topical,significant reduction in erythema and scaling
same,PASI score,"[1]; topical CPC-urea gel, scale of 0 to 4",~0
same,psoriatic plaque,"[1]; topical, b57 compared to TOPGRAF",reduction in psoriatic plaque
same,TEWL compared to tacrolimus cream (TOPGRAF),[2],better TEWL
